Measured values reported in US8906928B2, “Substituted pyrazolo-pyrrolo-pyridine-dione compounds” (ArQule, Inc., priority 2009, dated 2014).

Columns and labels:
DLD-1 = assay: MTS assay (cell growth inhibition), DLD-1; type: cell-based; conditions: DLD-1 cells, 72 hours incubation with test compound; concentration not given
Outline: (§1)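 First, seed 3000 cells per well in low-serum (1% FBS) DMEM and culture 18 h. Next, add compounds prepared at 300× in DMSO and diluted 1:40 in DMEM; incubate 72 h. Finally, add MTS/PMS for 4 h and measure absorbance at 492 nm.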

Kato III = assay: MTS assay (cell growth inhibition), Kato III; type: cell-based; conditions: Kato III cells, 72 hours incubation with test compound; concentration not given
Outline: as §1

MDA-MB = assay: MTS assay (cell growth inhibition), MDA-MB; type: cell-based; conditions: MDA-MB cells, 72 hours incubation with test compound; concentration not given
Outline: as §1

NCI-H1299 = assay: MTS assay (cell growth inhibition), NCI-H1299; type: cell-based; conditions: NCI-H1299 cells, 72 hours incubation with test compound; concentration not given
Outline: as §1

PACA-2 = assay: MTS assay (cell growth inhibition), PACA-2; type: cell-based; conditions: PACA-2 cells, 72 hours incubation with test compound; concentration not given
Outline: as §1

PC-3 = assay: MTS assay (cell growth inhibition), PC-3; type: cell-based; conditions: PC-3 cells, 72 hours incubation with test compound; concentration not given
Outline: as §1

| Compound | melting point | MTS CELL KILL DATA (% INHIBITION) DLD-1 (DLD-1) | MTS CELL KILL DATA (% INHIBITION) Kato III (Kato III) | MTS CELL KILL DATA (% INHIBITION) MDA-MB (MDA-MB) | MTS CELL KILL DATA (% INHIBITION) NCI-H1299 (NCI-H1299) | MTS CELL KILL DATA (% INHIBITION) PACA-2 (PACA-2) | MTS CELL KILL DATA (% INHIBITION) PC-3 (PC-3) |
| --- | --- | --- | --- | --- | --- | --- | --- |
| N#Cc1ccccc1CN1C(=O)c2cnc3[nH]ncc3c2C1=O [Example 108, 2-[(6,8-dioxo-6,8-dihydropyrazolo[3,4-b]pyrrolo[3,4-d]pyridin-7(3H)-yl)methyl]benzonitrile] | 285 to 287 °C |  |  |  |  |  |  |
| O=C1c2cnc3[nH]ncc3c2C(=O)N1CCC1CCNCC1 [Example 70, 7-(2-piperidin-4-ylethyl)pyrazolo[3,4-b]pyrrolo[3,4-d]pyridine-6,8(3H,7H)-dione] | > 300 °C |  |  |  |  |  |  |
| O=C1c2cnc3[nH]nc(-c4ccccc4)c3c2C(=O)N1Cc1c(F)cccc1Cl [Example 169, 7-(2-chloro-6-fluorobenzyl)-1-phenylpyrazolo[3,4-b]pyrrolo[3,4-d]pyridine-6,8(3H,7H)-dione] | 224 to 228 °C |  |  |  |  |  |  |
| O=C1NC(=O)c2c1cnc1[nH]ncc21 [Example 1, pyrazolo[3,4-b]pyrrolo[3,4-d]pyridine-6,8(3H,7H)-dione] | 285 to 300 °C |  |  |  |  |  |  |
| N#Cc1ccc(CN2C(=O)c3cnc4[nH]ncc4c3C2=O)cc1 [Example 41, 4-[(6,8-dioxo-6,8-dihydropyrazolo[3,4-b]pyrrolo[3,4-d]pyridin-7(3H)-yl)methyl]benzonitrile] | 293 to 295 °C |  |  |  |  |  |  |
| CC(C)(C)OC(=O)N1CCC(CN2C(=O)c3cnc4[nH]ncc4c3C2=O)CC1 [Example 140, tert-butyl 4-[(6,8-dioxo-6,8-dihydropyrazolo[3,4-b]pyrrolo[3,4-d]pyridin-7(3H)-yl)methyl]piperidine-1-carboxylate] | 134 to 137 °C | C (C = <50% INHIBITION) | C (C = <50% INHIBITION) | A (A = 80-100% INHIBITION) | C (C = <50% INHIBITION) | A (A = 80-100% INHIBITION) | A (A = 80-100% INHIBITION) |
| N#Cc1cccc(CN2C(=O)c3cnc4[nH]nc(Br)c4c3C2=O)c1 [Example 142, 3-[(1-bromo-6,8-dioxo-6,8-dihydropyrazolo[3,4-b]pyrrolo[3,4-d]pyridin-7(3H)-yl)methyl]benzonitrile] | 283 to 285 °C | C (C = <50% INHIBITION) | C (C = <50% INHIBITION) | B (B = 50-79% INHIBITION) | C (C = <50% INHIBITION) | C (C = <50% INHIBITION) | A (A = 80-100% INHIBITION) |
| O=C1c2cnc3[nH]ncc3c2C(=O)N1CC1CCNCC1 [Example 57, 7-(piperidin-4-ylmethyl)pyrazolo[3,4-b]pyrrolo[3,4-d]pyridine-6,8(3H,7H)-dione] | > 300 °C |  |  |  |  |  |  |
| O=C1c2cnc3[nH]ncc3c2C(=O)N1Cc1ccccc1-c1cccc(F)c1F [Example 141, 7-[(2′,3′-difluorobiphenyl-2-yl)methyl]pyrazolo[3,4-b]pyrrolo[3,4-d]pyridine-6,8(3H,7H)-dione] | 93 to 100 °C |  |  |  |  |  |  |
| COc1ccc(OC)c(-c2ccccc2CN2C(=O)c3cnc4[nH]ncc4c3C2=O)c1 [Example 143, 7-[(2′,5′-dimethoxybiphenyl-2-yl)methyl]pyrazolo[3,4-b]pyrrolo[3,4-d]pyridine-6,8(3H,7H)-done] | 208 to 211 °C | C (C = <50% INHIBITION) | C (C = <50% INHIBITION) | A (A = 80-100% INHIBITION) | C (C = <50% INHIBITION) | C (C = <50% INHIBITION) | A (A = 80-100% INHIBITION) |
| O=C1c2cnc3[nH]ncc3c2C(=O)N1Cc1ccccc1-c1ccc(F)cc1F [Example 145, 7-[(2′,4′-difluorobiphenyl-2-yl)methyl]pyrazolo[3,4-b]pyrrolo[3,4-d]pyridine-6,8(3H,7H)-dione] | 199 to 200 °C |  |  |  |  |  |  |
| O=C1c2cnc3[nH]ncc3c2C(=O)N1CCc1ccccc1 [Example 2, 7-(2-phenylethyl)pyrazolo[3,4-b]pyrrolo[3,4-d]pyridine-6,8(3H,7H)-dione] | 237 to 239 °C | A (A = 80-100% INHIBITION) | A (A = 80-100% INHIBITION) | A (A = 80-100% INHIBITION) | A (A = 80-100% INHIBITION) | A (A = 80-100% INHIBITION) | A (A = 80-100% INHIBITION) |
| Cc1ccc(-c2ccccc2CN2C(=O)c3cnc4[nH]ncc4c3C2=O)cc1F [Example 146, 7-[(3′-fluoro-4′-methylbiphenyl-2-yl)methyl]pyrazolo[3,4-b]pyrrolo[3,4-d]pyridine-6,8(3H,7H)-dione] | 193 to 198 °C | C (C = <50% INHIBITION) | C (C = <50% INHIBITION) | C (C = <50% INHIBITION) | C (C = <50% INHIBITION) | C (C = <50% INHIBITION) | C (C = <50% INHIBITION) |
| COc1cccc(-c2ccccc2CN2C(=O)c3cnc4[nH]ncc4c3C2=O)c1 [Example 147, 7-[(3′-methoxybiphenyl-2-yl)methyl]pyrazolo[3,4-b]pyrrolo[3,4-d]pyridine-6,8(3H,7H)-dione] | 99 to 100 °C |  |  |  |  |  |  |
| CC(c1ccccc1-c1ccccc1)N1C(=O)c2cnc3[nH]ncc3c2C1=O (stereo not drawn) [Example 144, 7-(1-biphenyl-2-ylethyl)pyrazolo[3,4-b]pyrrolo[3,4-d]pyridine-6,8(3H,7H)-dione] | 161 to 163 °C |  |  |  |  |  |  |
| Cc1cccc(OCCN2C(=O)c3cnc4[nH]ncc4c3C2=O)c1 [Example 13, 7-[2-(3-methylphenoxy)ethyl]pyrazolo[3,4-b]pyrrolo[3,4-d]pyridine-6,8(3H,7H)-dione] |  | C (C = <50% INHIBITION) | A (A = 80-100% INHIBITION) | A (A = 80-100% INHIBITION) | B (B = 50-79% INHIBITION) | C (C = <50% INHIBITION) | A (A = 80-100% INHIBITION) |
